Results taken from publication PMC7563222, “Recognition of Dimeric Lewis X by Anti-Dimeric Le^x Antibody SH2” (Vaccines, 2020).

How the values were obtained:
[1] = system: mAb SH2; experiment: Competitive ELISA: inhibition of mAb SH2 binding to immobilized (DimLe^x)16-BSA conjugate 1; parameters: species or system mouse; conditions: (DimLe^x)16-BSA 1 immobilized; SH2 serum dilution 1:500 (Figure 5)
Description: A MaxiSorp NUNC 96-well ELISA microtiter plate was coated with a dilution of the (DimLe^x)16-BSA conjugate 1 (100 μL per well, 5 μg/mL) in a 10 mM PBS solution at pH 7.1. The plate was covered with sealing tape and incubated at 4 °C overnight. The antigen solution was discarded, and the plate was washed (using ELx405 auto plate washer, 5 × 15 s) with a 10 mM PBS buffer at pH 7.3 containing 0.05% Tween 20. In 1.5 mL Eppendorf tubes, 175 μL dilutions of competitors (concentration ranging from 0.632 mg/mL to 2 mg/mL in 10 mM PBS-0.05% Tween 20) were incubated for 1 h at 23 °C (in the dark) with 175 μL of a solution of SH2 ascites (1:500 dilution in 10 mM PBS-0.05% Tween 20). At the same time, the plate was blocked with 0.05% skim milk in PBS (300 μL per well). After 1 h of incubation at 37 °C, the plate was washed with 10 mM PBS-0.05% Tween 20. Each well then received 100 μL of the competitor-mAb mixture. Three wells were used as the blank control in which the competitor-mAb mixture was not added, rather received 100 μL of 10 mM PBS-0.05% Tween 20. The plate was incubated for 3 h at 23 °C (in the dark). The plate was subsequently washed using the plate washer with PBS-0.05% Tween 20. A dilution of commercially available horseradish peroxidase labeled goat anti-mouse antibody (1:5000 in 10 mM PBS-0.05% Tween 20, 100 μL per well) was added to each well. After 1 h of incubation at 23 °C (in the dark), the plate was washed with 10 mM PBS-0.05% Tween 20. A solution of the chromogenic substrate TMB (100 μL per well) was added. After a 10 min incubation period at 23 °C (in the dark), 100 μL of 5% Phosphoric Acid stop solution was added to the wells to quench the reaction. The absorbance values were read at 450 nm employing a PowerWave XS plate reader. All samples were prepared in triplicate. The absorbance values were plotted as the percentage inhibition against an increasing concentration of competitor, calculated using wells containing no competitor as the reference point. The values were fitted to a 4-parameter logistics sigmoidal equation: y = y0 + a/[1 + (x/x0)^b] using Sigma Plot 10.0. The concentration of each analogue required for 50% inhibition (IC50) of Le^x-SH2 binding and the corresponding changes in free energy Δ(ΔG) of binding (kcal·mol^−1) using DimLe^xOPr 6 (Table 1) or Le^xOMe 7 (Table 2) as the reference were calculated.

[2] = system: mAb SH2; experiment: Indirect titration ELISA of SH2 ascites against coated glycoconjugates; assay type: binding, mouse; conditions: antigens coated at 10 μg/mL; 2 and 5 also at 20 µg/mL (not shown)
Description: MaxiSorp NUNC 96-well enzyme-linked immunosorbent assay (ELISA) microtiter plate (Thermo Fisher Scientific) was coated with a dilution of glycoconjugates 1–5 and BSA (100 μL per well, […]) in a 10 mM phosphate-buffered saline (PBS) solution at pH 7.1. The plate was covered with sealing tape and incubated at 4 °C overnight. The antigen solution was discarded, and the plate was washed (using ELx405 auto plate washer, 5 × 15 s) with a 10 mM PBS buffer at pH 7.3 containing 0.05% Tween 20. The plate was blocked with 0.05% skim milk in 10 mM PBS (300 μL per well) and incubated for 1 h at 37 °C. The plate was then washed with 10 mM PBS-0.05% Tween 20. A 1:100 dilution of SH2 ascites was prepared and 146 μL of the dilution was distributed in the wells corresponding to the primary dilution. All other wells received 100 μL of the 10 mM PBS-0.05% Tween 20 pH 7.3 buffer. In-plate serial dilutions were performed in which 46 μL of the primary dilution was pipetted downward along the rows. The well contents were mixed by rinsing the pipette tips (7×). Lastly, 46 μL of the mAb solution was removed and discarded from the wells, which received the final solution of mAb (final volume in all wells, 100 μL). The last row of the 96-well plate was used as the blank control. MAb SH2 ascites were not pipetted into these wells, rather 100 μL of 10 mM PBS-0.05% Tween 20 was added. The plate was incubated for 2 h at 23 °C (in the dark). The plate was subsequently washed using the plate washer with PBS-0.05% Tween 20. A dilution of commercially available horseradish peroxidase labeled goat anti-mouse antibody (Mandel Scientific) (1:5000 in 10 mM PBS-0.05% Tween 20, 100 μL per well) was added to each well. After 1 h of incubation at 23 °C (in the dark), the plate was washed with PBS-0.05% Tween 20. A solution of the chromogenic substrate 3,3′,5,5′-tetramethylbenzidine (TMB) (Mandel Scientific) (100 μL per well) was added. After a 10 min incubation period at 23 °C (in the dark), 100 μL of 5% Phosphoric Acid stop solution was added to the wells to quench the reaction. The absorbance values were read at 450 nm employing a PowerWave XS plate reader. All samples were prepared in triplicate. The absorbance values were plotted against an increasing serum dilution. The values were fitted to a 4-parameter logistics sigmoidal equation: y = y0 + a/[1 + (x/x0)^b] using Sigma Plot®® 10.0.

Substance | Inhibition of SH2 binding to (DimLe^x)16-BSA by glycoconjugates as soluble inhibitors (in words) [1] | Binding of SH2 to coated antigen (titration, in words) [2]
(Le^x)10-BSA [compound 3] | did not | no binding
(Le^x)35-BSA [compound 4] | did not | weakly binds
